This note sets out measurements from patent US12578273B2, “Ph-reversible leuco-BODIPY probe for in situ visualization of extracellular vesicles and their secretion from living cells” (The Chinese University of Hong Kong, priority 2021, dated 2026).

This series can be described thus: pH-dependent spectroscopic properties (pH titration, absorption and fluorescence). Type of series: physicochemical. How it is done:
In each step of pH titration, small volumes (2-10 μL) of HCl at appropriate concentrations (0.1, 10^−2, or 10^−3 M) were pipetted directly into the measurement cell, followed by filling up with 2 mL of 1 μM dye-containing solution [either in a mixture of PBS/ethanol 1:1 (v/v) or 0.5% (v/v) DMSO]. The pH was monitored at 298 K using a digital pH meter (827 pH lab) equipped with a Biotrode (Metrohm, Herisau, Switzerland). Calibration of the instrument was performed with standard aqueous solutions of pH 4, 7, and 9 from Metrohm. Absorption and fluorescence measurements were carried out on an Agilent Cary 5000 spectrophotometer and a Horiba Jobin Yvon spectrometer (Nanolog FL3-2iHR), respectively.
We investigated the spectroscopic properties of the fluorescent probe as a function of pH in phosphate-buffered saline (PBS) containing 50% ethanol by UV-vis spectrophotometry and fluorimetry (FIGS. 21A-21F, 22-23).

The mark [1] stands for this setting: pH range of 3-11, C2H5OH/PBS (1:1, v/v).

`CCOC(=O)C(=CC1=[N+]2C(=C(c3ccncc3)c3ccc(C=C(C(=O)OCC)C(=O)OCC)n3[B-]2(F)F)C=C1)C(=O)OCC` [BODIPY]: where the note is “PBS containing 50% ethanol”, the “onset of the fluorescence peak at 618 nm (pH)” value is “about 7.4”. Further, the red emission peak (PBS containing 50% ethanol) is on record as 618 nm. Under “acidic conditions (pH of about 4), PBS containing 50% ethanol”, the “longest wavelength absorption band” value is reported as 602 nm. In addition, the “increase in emission at 618 nm” value is recorded as “about 15 fold” (pH drops from 7.4 to 5.5), 8 fold (pH drops from 7.4 to 6.5) and “about 3 fold” (pH drops from 7.4 to 7.0). Also, where the note is “reappearance of the absorption bands at 602 nm on reacidification with HCl, PBS containing 50% ethanol”, the “pKa (corrected pKa)” value worked out at 5.28±0.05.
As to `CN(C)CCNC(=O)CCc1ccc2n1[B-](F)(F)[N+]1=C(c3ccc[nH]3)C=CC1=C2` [LysoTracker™ Red, reference compound], under setting [1], the “absorbance as a function of pH” value is “near-constant” and the “fluorescence as a function of pH” value was “always-on”.
